Compound in one test: NC(=O)CCCCC1CCSS1 [lipoamide]
Nature of the test: thermal stability z-score vs DMSO; higher = more thermally stabilized by treatment. The settings on record: HeLa, lipoamide concentration 100 µM. How it is done:
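Cellular thermal proteome profiling in HeLa cells. Cells were treated with 100 µM lipoamide for 1 h, with or without 1 mM arsenate for a further 1 h, then heated to ten temperatures (37-66.3 °C), and soluble protein was quantified by TMT mass spectrometry relative to 0.1% DMSO controls. The thermal stability score (sum of log2 fold changes minus the abundance score) was transformed to a z-score; mean of n = 3 experiments.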

Compound in the next test: O=[As]([O-])(O)O.[K+] [potassium arsenate]
The description is as above. The note with it: HeLa; arsenate concentration 1 mM. The procedure: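 Cellular thermal proteome profiling in HeLa cells treated with 1 mM arsenate for 1 h (DMSO pretreatment), heated to ten temperatures (37-66.3 °C). Soluble protein was quantified by TMT mass spectrometry relative to DMSO controls; the thermal stability score was transformed to a z-score; mean of n = 3 experiments.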

[1] abbreviates: arsenate co-treatment: 1 mM arsenate 1 h.

Results on 42 targets are retold here after the supplement of paper PMC12463676, “Small-molecule dissolution of stress granules by redox modulation benefits ALS models” (Nature Chemical Biology, 2025).
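Further: each temperature applied for 3 min, abundance score taken as mean log2 fold change at the two lowest temperatures, z-score obtained by mean subtraction and division by SD.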

UniProt Q9UBQ6, sequence (Q9UBQ6 whole entry): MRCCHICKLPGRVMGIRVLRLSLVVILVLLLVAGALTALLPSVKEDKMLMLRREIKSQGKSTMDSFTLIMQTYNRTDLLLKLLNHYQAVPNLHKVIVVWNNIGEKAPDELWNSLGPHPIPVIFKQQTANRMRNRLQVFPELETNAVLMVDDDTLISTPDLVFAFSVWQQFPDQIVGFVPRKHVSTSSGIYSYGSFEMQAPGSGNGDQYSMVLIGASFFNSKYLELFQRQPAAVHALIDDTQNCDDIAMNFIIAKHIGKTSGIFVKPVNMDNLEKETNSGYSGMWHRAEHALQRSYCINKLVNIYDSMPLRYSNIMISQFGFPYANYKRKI
UniProt Q9Y3B2, sequence (Q9Y3B2 whole entry): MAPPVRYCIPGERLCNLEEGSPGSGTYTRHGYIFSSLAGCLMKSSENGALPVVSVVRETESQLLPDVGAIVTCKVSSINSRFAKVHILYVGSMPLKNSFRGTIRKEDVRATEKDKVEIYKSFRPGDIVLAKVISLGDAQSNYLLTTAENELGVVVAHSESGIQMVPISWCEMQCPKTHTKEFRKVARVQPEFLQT
UniProt Q96B26, sequence (Q96B26 whole entry): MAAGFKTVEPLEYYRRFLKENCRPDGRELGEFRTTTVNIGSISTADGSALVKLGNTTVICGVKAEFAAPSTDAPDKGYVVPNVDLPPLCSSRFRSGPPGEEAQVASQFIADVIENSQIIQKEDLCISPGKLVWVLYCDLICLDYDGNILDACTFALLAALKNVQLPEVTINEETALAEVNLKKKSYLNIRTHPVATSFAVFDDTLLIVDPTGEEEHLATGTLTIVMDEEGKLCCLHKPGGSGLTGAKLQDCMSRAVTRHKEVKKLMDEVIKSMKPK
UniProt Q06265, sequence (Q06265 whole entry): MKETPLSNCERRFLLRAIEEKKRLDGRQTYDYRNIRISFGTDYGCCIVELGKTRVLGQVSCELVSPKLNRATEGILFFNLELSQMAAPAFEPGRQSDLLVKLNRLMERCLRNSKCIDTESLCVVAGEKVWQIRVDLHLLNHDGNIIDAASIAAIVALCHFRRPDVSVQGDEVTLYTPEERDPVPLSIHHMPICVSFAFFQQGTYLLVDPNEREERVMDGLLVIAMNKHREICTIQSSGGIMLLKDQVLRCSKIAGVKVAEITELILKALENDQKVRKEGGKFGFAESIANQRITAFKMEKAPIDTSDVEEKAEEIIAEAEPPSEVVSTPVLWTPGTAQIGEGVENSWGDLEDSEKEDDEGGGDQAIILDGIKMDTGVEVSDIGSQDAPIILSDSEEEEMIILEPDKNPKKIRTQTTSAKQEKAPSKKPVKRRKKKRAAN
UniProt Q9Y421, sequence (Q9Y421 whole entry): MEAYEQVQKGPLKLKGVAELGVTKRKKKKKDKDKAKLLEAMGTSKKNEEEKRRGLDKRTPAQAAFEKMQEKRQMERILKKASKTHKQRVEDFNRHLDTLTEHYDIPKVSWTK
UniProt Q641Q2, sequence (Q641Q2 whole entry): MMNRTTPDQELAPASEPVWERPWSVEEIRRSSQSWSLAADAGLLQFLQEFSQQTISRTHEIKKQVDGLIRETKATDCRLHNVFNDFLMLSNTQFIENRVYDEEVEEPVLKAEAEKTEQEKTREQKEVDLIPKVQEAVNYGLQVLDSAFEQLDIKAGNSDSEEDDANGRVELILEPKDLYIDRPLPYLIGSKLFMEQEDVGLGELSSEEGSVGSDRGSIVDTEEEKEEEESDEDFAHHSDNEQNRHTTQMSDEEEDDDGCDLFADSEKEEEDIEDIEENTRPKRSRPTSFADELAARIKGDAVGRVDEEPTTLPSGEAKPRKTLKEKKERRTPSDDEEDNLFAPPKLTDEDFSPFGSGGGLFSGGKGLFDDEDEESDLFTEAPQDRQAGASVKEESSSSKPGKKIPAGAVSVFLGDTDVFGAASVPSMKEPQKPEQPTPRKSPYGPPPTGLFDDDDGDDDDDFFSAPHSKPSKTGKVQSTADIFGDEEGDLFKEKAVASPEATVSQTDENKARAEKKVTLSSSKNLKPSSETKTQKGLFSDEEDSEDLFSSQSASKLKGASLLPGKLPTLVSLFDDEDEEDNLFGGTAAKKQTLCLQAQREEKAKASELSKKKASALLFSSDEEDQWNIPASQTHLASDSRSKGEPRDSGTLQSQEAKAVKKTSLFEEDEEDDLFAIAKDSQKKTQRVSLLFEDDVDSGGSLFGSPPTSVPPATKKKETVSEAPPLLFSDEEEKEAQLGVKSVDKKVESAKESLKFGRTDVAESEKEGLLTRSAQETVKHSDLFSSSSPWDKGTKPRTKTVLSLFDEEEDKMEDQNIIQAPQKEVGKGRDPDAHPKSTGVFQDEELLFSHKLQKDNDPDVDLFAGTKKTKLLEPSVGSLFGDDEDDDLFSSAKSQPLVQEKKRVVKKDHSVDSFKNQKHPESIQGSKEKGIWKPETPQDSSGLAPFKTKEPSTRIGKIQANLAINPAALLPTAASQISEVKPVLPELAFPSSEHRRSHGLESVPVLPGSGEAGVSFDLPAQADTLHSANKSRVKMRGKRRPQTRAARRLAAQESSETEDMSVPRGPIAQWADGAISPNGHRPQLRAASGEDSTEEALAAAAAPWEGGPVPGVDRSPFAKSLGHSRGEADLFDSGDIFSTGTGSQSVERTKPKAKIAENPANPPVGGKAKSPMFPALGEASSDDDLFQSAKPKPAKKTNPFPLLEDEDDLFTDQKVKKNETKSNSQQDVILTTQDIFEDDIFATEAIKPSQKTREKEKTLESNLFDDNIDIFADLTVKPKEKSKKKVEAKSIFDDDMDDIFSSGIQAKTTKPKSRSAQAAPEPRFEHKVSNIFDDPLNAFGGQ
UniProt Q5RKV6, sequence (Q5RKV6 whole entry): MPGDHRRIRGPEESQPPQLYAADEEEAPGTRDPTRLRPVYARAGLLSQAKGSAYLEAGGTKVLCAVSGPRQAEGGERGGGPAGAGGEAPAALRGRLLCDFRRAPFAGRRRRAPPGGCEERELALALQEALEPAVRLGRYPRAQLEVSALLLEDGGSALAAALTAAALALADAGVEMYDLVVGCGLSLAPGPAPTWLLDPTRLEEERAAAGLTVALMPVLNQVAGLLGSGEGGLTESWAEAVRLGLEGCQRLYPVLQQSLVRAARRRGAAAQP
UniProt Q0VG06, sequence (Q0VG06 whole entry): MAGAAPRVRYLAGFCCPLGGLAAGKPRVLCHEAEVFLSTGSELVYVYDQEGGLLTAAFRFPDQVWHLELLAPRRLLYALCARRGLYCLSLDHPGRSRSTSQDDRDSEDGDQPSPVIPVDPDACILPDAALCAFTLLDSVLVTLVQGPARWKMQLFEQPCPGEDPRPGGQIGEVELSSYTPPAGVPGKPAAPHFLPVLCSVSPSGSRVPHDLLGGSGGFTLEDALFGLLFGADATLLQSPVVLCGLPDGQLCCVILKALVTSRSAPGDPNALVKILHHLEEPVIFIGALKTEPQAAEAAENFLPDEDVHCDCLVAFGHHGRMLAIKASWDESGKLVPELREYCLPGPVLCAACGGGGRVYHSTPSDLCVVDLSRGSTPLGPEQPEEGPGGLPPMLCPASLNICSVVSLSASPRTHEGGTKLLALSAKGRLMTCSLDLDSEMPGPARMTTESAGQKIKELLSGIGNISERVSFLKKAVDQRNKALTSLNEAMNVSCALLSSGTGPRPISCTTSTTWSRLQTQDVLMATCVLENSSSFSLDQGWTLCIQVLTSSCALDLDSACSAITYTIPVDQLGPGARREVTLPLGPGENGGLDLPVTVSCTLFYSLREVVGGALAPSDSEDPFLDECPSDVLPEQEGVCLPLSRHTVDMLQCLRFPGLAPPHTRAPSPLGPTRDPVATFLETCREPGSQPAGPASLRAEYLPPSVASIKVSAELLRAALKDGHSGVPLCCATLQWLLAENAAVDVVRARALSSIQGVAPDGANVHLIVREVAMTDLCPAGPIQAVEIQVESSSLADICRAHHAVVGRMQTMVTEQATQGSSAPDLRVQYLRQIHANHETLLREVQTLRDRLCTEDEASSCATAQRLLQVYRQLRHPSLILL
UniProt Q01780, sequence (Q01780 whole entry): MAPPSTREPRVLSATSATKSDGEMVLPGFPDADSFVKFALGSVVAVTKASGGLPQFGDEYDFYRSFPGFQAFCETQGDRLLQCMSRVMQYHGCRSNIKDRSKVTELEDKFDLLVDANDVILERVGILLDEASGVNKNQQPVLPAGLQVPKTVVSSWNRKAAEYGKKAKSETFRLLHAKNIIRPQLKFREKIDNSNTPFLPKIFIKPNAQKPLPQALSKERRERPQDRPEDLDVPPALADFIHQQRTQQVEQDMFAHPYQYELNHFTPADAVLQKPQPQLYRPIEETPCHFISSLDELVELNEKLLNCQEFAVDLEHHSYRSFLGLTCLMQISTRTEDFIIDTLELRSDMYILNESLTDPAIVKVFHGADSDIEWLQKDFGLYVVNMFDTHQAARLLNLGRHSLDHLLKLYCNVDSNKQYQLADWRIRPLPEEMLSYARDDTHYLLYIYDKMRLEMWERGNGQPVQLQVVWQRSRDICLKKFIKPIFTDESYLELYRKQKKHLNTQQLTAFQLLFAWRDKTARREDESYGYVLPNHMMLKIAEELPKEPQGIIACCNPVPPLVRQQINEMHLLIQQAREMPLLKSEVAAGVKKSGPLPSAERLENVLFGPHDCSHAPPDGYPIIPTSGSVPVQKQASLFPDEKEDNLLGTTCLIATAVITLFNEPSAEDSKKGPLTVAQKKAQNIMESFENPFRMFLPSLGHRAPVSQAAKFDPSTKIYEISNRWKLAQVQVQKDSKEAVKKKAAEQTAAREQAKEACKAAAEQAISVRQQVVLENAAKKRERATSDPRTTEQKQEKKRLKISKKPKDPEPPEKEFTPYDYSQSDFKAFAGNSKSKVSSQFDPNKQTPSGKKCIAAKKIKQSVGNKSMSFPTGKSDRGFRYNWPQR
UniProt Q13158, sequence (Q13158 whole entry): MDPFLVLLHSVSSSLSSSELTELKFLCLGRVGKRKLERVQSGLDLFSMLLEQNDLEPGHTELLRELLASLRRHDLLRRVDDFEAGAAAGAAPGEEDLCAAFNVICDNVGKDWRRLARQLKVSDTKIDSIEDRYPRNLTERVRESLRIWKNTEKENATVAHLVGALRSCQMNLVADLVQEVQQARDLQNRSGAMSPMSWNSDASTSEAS

For EXOC5 (UniProt O00471), the thermal stability z-score was -0.0743 with lipoamide (setting [1]), 0.105 with lipoamide (arsenate co-treatment: none) and -0.0647 in the test with potassium arsenate.
On to EXOC6 (UniProt Q8TAG9), for which the thermal stability z-score with lipoamide (setting [1]) was -0.242; in the test with lipoamide (arsenate co-treatment: none) it was -0.374; with potassium arsenate, -0.201.
The matching figures for EXOC6B (UniProt Q9Y2D4): 0.36, 1.01 and 0.332.
EXOC7 (UniProt Q9UPT5): the thermal stability z-score in the test with lipoamide (setting [1]) was -0.927; in the test with lipoamide (arsenate co-treatment: none), -0.435; with potassium arsenate, -0.227.
On to EXOC8 (UniProt Q8IYI6), for which the thermal stability z-score was -0.0845 with lipoamide (setting [1]), 0.0172 with lipoamide (arsenate co-treatment: none) and -0.106 with potassium arsenate.
Turning to EXOG (UniProt Q9Y2C4), the thermal stability z-score with lipoamide (setting [1]) is -0.359; with lipoamide (arsenate co-treatment: none), -0.451; in the test with potassium arsenate, 0.587.
On to EXOSC1 (UniProt Q9Y3B2), for which the thermal stability z-score in the test with lipoamide (setting [1]) is 0.0998; with lipoamide (arsenate co-treatment: none), -1.26; with potassium arsenate it was -0.615.
Turning to EXOSC2 (UniProt Q13868), the thermal stability z-score was 0.567 in the test with lipoamide (setting [1]), 0.234 in the test with lipoamide (arsenate co-treatment: none) and -0.593 with potassium arsenate.
Turning to EXOSC3 (UniProt Q9NQT5), the results for the thermal stability z-score with lipoamide (setting [1]), with lipoamide (arsenate co-treatment: none) and in the test with potassium arsenate were 0.273, -0.000548 and -0.385, respectively.
The matching figures for EXOSC4 (UniProt Q9NPD3): 0.821, -0.104 and -0.872.
As for EXOSC5 (UniProt Q9NQT4), the thermal stability z-score with lipoamide (setting [1]) is 1.79; with lipoamide (arsenate co-treatment: none) it was 1.03; in the test with potassium arsenate it was -0.564.
The matching figures for EXOSC6 (UniProt Q5RKV6): 0.123, 0.0946 and -1.85.
Regarding EXOSC7 (UniProt Q15024), the thermal stability z-score with lipoamide (setting [1]) was 0.482; in the test with lipoamide (arsenate co-treatment: none), 0.0621; with potassium arsenate it was -1.11.
The matching figures for EXOSC8 (UniProt Q96B26): 0.692, -0.359 and -0.573.
Regarding EXOSC9 (UniProt Q06265), the thermal stability z-score in the test with lipoamide (setting [1]) was 0.0277; with lipoamide (arsenate co-treatment: none), -1.24; with potassium arsenate, -1.59.
Regarding EXOSC10 (UniProt Q01780), the thermal stability z-score with lipoamide (setting [1]) is 0.0236; in the test with lipoamide (arsenate co-treatment: none), -0.0314; with potassium arsenate, -0.437.
With EXT2 (UniProt Q93063), the thermal stability z-score with lipoamide (setting [1]) is -1.16; with lipoamide (arsenate co-treatment: none), -0.953; with potassium arsenate it was -0.573.
The matching figures for EXTL2 (UniProt Q9UBQ6): 1.05, 0.893 and 0.453.
The matching figures for EYA4 (UniProt O95677): 0.0211, -0.116 and 0.168.
The matching figures for EZH2 (UniProt Q15910): -0.0218, -0.132 and -0.158.
On to EZR (UniProt P15311), for which the thermal stability z-score in the test with lipoamide (setting [1]) is 1.01; in the test with lipoamide (arsenate co-treatment: none), 0.661; with potassium arsenate, -0.481.
F11R (UniProt Q9Y624): the thermal stability z-score with lipoamide (setting [1]) stood at 0.865; in the test with lipoamide (arsenate co-treatment: none) it was 0.653; in the test with potassium arsenate it was 0.151.
The matching figures for FA2H (UniProt Q7L5A8): -0.355, 0.132 and -0.327.
The matching figures for FAAP100 (UniProt Q0VG06): 0.0838, -0.0268 and -0.167.
On to FADD (UniProt Q13158), for which the figures for the thermal stability z-score in the test with lipoamide (setting [1]), in the test with lipoamide (arsenate co-treatment: none) and in the test with potassium arsenate were -0.805, 0.901 and 0.325, respectively.
In the case of FADS1 (UniProt O60427), the thermal stability z-score is 0.469 with lipoamide (setting [1]), 0.181 with lipoamide (arsenate co-treatment: none) and 0.226 in the test with potassium arsenate.
The matching figures for FADS3 (UniProt Q9Y5Q0): -0.431, 0.482 and -0.618.
The matching figures for FAF1 (UniProt Q9UNN5): 0.777, 0.869 and 0.738.
The matching figures for FAF2 (UniProt Q96CS3): -0.435, -0.684 and -0.262.
For FAH (UniProt P16930), the thermal stability z-score with lipoamide (setting [1]) is 0.241; with lipoamide (arsenate co-treatment: none) it was -0.125; with potassium arsenate it was -0.623.
The matching figures for FAHD1 (UniProt Q6P587): 0.565, 0.339 and 0.21.
The matching figures for FAHD2A (UniProt Q96GK7): 0.146, -0.0859 and -0.0563.
The matching figures for FAIM (UniProt Q9NVQ4): 1.03, 0.411 and 0.336.
As to FAM3A (UniProt P98173), the thermal stability z-score with lipoamide (setting [1]) was 0.0593; with lipoamide (arsenate co-treatment: none), -0.109; in the test with potassium arsenate, 0.363.
For the target FAM3C (UniProt Q92520), the results for the thermal stability z-score with lipoamide (setting [1]), in the test with lipoamide (arsenate co-treatment: none) and in the test with potassium arsenate were -1.06, -0.89 and 0.805, respectively.
For FAM8A1 (UniProt Q9UBU6), the thermal stability z-score is -0.425 in the test with lipoamide (setting [1]), -0.579 with lipoamide (arsenate co-treatment: none) and -0.315 with potassium arsenate.
The matching figures for FAM20B (UniProt O75063): -1.35, -1.05 and 0.335.
As for FAM21A (UniProt Q641Q2), the thermal stability z-score was 0.0165 with lipoamide (setting [1]), -0.365 with lipoamide (arsenate co-treatment: none) and 0.352 in the test with potassium arsenate.
In the case of FAM21C (UniProt Q9Y4E1), the figures for the thermal stability z-score with lipoamide (setting [1]), with lipoamide (arsenate co-treatment: none) and in the test with potassium arsenate were 0.0661, 0.32 and 0.0902, respectively.
Take FAM32A (UniProt Q9Y421): the values for the thermal stability z-score with lipoamide (setting [1]), with lipoamide (arsenate co-treatment: none) and with potassium arsenate were 0.832, 0.827 and 0.375, respectively.
On to FAM45BP|FAM45A, for which the thermal stability z-score with lipoamide (setting [1]) was found to be 0.335; with lipoamide (arsenate co-treatment: none), 1.28; with potassium arsenate it was 1.44.
Turning to FAM46A (UniProt Q96IP4), the thermal stability z-score with lipoamide (setting [1]) was -0.0743; with lipoamide (arsenate co-treatment: none), 0.0046; with potassium arsenate it was -0.0735.
